Laboratory results from US10206394B2, “Herbicidal compounds” (Syngenta Participations AG, priority 2014, dated 2019).
Read-outs that look alike come from different tables or passages of the source.

Key:
Experiment in all cases: Glasshouse assay for herbicidal activity (pre- and post-emergence), percentage phytotoxicity
Format in all cases: in vivo
[1] = tested on: Alopecurus myosuroides (ALOMY); conditions: Alopecurus myosuroides, rate 250 g/ha
Summary of the method: (§1)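 Percent injury was estimated by eye on a scale where 0% means no damage and 100% complete damage. Ratings came 15 DAA post-emergence and 20 DAA pre-emergence, with plants held under 16 h light and 65% humidity at 24/18 °C or 20/16 °C day/night.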

[2] = tested on: Lolium perenne (LOLPE); conditions: Lolium perenne, rate 250 g/ha
Summary of the method: as §1

[3] = tested on: Avena fatua (AVEFA); conditions: Avena fatua, rate 250 g/ha
Summary of the method: as §1

[4] = tested on: Echinochloa crus-galli (ECHCG); conditions: Echinochloa crus-galli, rate 250 g/ha
Summary of the method: as §1

[5] = post-emergence, 360 h, POST-emergence, visual score 15 DAA (100%=total damage, 0%=no damage), read-out: Post-emergence herbicidal activity (percentage phytotoxicity) ALOMY POST
[6] = pre-emergence, 480 h, PRE-emergence, visual score 20 DAA (100%=total damage, 0%=no damage), read-out: Pre-emergence herbicidal activity (percentage phytotoxicity) ALOMY PRE
[7] = post-emergence, 360 h, POST-emergence, visual score 15 DAA (100%=total damage, 0%=no damage), read-out: Post-emergence herbicidal activity (percentage phytotoxicity) LOLPE POST
[8] = pre-emergence, 480 h, PRE-emergence, visual score 20 DAA (100%=total damage, 0%=no damage), read-out: Pre-emergence herbicidal activity (percentage phytotoxicity) LOLPE PRE
[9] = post-emergence, 360 h, POST-emergence, visual score 15 DAA (100%=total damage, 0%=no damage), read-out: Post-emergence herbicidal activity (percentage phytotoxicity) AVEFA POST
[10] = pre-emergence, 480 h, PRE-emergence, visual score 20 DAA (100%=total damage, 0%=no damage), read-out: Pre-emergence herbicidal activity (percentage phytotoxicity) AVEFA PRE
[11] = post-emergence, 360 h, POST-emergence, visual score 15 DAA (100%=total damage, 0%=no damage), read-out: Post-emergence herbicidal activity (percentage phytotoxicity) ECHCG POST
[12] = pre-emergence, 480 h, PRE-emergence, visual score 20 DAA (100%=total damage, 0%=no damage), read-out: Pre-emergence herbicidal activity (percentage phytotoxicity) ECHCG PRE

SMILES	pest or weed control at 250 g/ha [1, 5]	pest or weed control at 250 g/ha [1, 6]	pest or weed control at 250 g/ha [2, 7]	pest or weed control at 250 g/ha [2, 8]	pest or weed control at 250 g/ha [3, 9]	pest or weed control at 250 g/ha [3, 10]	pest or weed control at 250 g/ha [4, 11]	pest or weed control at 250 g/ha [4, 12]
C#CC(C)(C)NC(=O)CC1CC(=O)C(c2c(C)cc(-n3cc(Cl)cn3)cc2C)C1=O (stereo not drawn) [Compound B313]	90%	90%	70%	90%	70%	80%	90%	100%
CCCNC(=O)CC1CC(=O)C(c2c(C)cc(-n3cc(Cl)cn3)cc2C)C1=O (stereo not drawn) [Compound B314, 2-[3-[4-(4-chloropyrazol-1-yl)-2,6-dimethyl-phenyl]-2,4-dioxo-cyclopentyl]-N-propyl-acetamide]	100%	100%	90%	90%	100%	90%	80%	100%
CCC(C)NC(=O)CC1CC(=O)C(c2c(C)cc(-n3cc(Cl)cn3)cc2C)C1=O (stereo not drawn) [Compound B315]	90%	80%	80%	70%	100%	80%	100%	100%
C=CC(C)NC(=O)CC1CC(=O)C(c2c(C)cc(-n3cc(Cl)cn3)cc2C)C1=O (stereo not drawn) [Compound B316]	90%	90%	90%	80%	100%	80%	100%	90%
C#CCNC(=O)CC1CC(=O)C(c2c(C)cc(-n3cc(Cl)cn3)cc2C)C1=O (stereo not drawn) [Compound B317]	100%	90%	90%	90%	100%	90%	100%	100%
CCNC(=O)CC1CC(=O)C(c2c(C)cc(-c3ccc(C#N)cn3)cc2C)C1=O (stereo not drawn) [Compound B318]	90%	90%	90%	100%	100%	90%	100%	90%
CC(C)=CNC(=O)CC1CC(=O)C(c2c(C)cc(-c3ccc(C#N)cn3)cc2C)C1=O (stereo not drawn) [Compound B319]	70%	0%	60%	0%	80%	0%	100%	0%
Cc1cc(-c2ccc(C#N)cn2)cc(C)c1C1C(=O)CC(CC(=O)NC(C)C)C1=O (stereo not drawn) [Compound B320]	100%	100%	100%	100%	100%	100%	100%	100%
Cc1cc(-c2ccc(C#N)cn2)cc(C)c1C1C(=O)CC(CC(=O)N2CCOCC2)C1=O (stereo not drawn) [Compound B321]	90%	70%	90%	90%	100%	80%	100%	100%
